From ChEMBL document CHEMBL1201862, “PubChem BioAssay data set” (2004)
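Five concentrations, 48 hours, 96-well plates. Abbreviation: GI50, concentration required for 50% inhibition of growth.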 Active and inactive are the calls of the source. Rule as the data show it: active = GI50 up to about 1.1 µM and inactive = higher.

Tests used:
Experiment in all cases: NCI-60 cell line screen, 48 h
TK-10 = system: TK-10
UO-31 = system: UO-31
A549 = system: A549
MOLT-4 = system: MOLT-4
A498 = system: A498
786-0 = system: 786-0
MDA-N = system: MDA-N
SK-OV-3 = system: SK-OV-3
UACC-257 = system: UACC-257
CCRF-CEM = system: CCRF-CEM
HT-29 = system: HT-29
SK-MEL-2 = system: SK-MEL-2
MDA-MB-231 = system: MDA-MB-231
OVCAR-8 = system: OVCAR-8
T47D = system: T47D
HL-60 = system: HL-60
Malme-3M = system: Malme-3M
K562 = system: K562
HOP-92 = system: HOP-92
SF-295 = system: SF-295
NCI/ADR-RES = system: NCI/ADR-RES
SF-539 = system: SF-539
KM12 = system: KM12
SR = system: SR
SN12C = system: SN12C
CAKI-1 = system: CAKI-1
LOX IMVI = system: LOX IMVI
MCF7 = system: MCF7
SK-MEL-5 = system: SK-MEL-5
IGROV-1 = system: IGROV-1
HCT-116 = system: HCT-116
NCI-H23 = system: NCI-H23
MDA-MB-435 = system: MDA-MB-435
BT-549 = system: BT-549
OVCAR-3 = system: OVCAR-3
SK-MEL-28 = system: SK-MEL-28
RPMI-8226 = system: RPMI-8226
OVCAR-5 = system: OVCAR-5
NCI-H522 = system: NCI-H522
U-251 = system: U-251
SNB-19 = system: SNB-19
COLO 205 = system: COLO 205
SW-620 = system: SW-620
SNB-75 = system: SNB-75
M14 = system: M14
SF-268 = system: SF-268
NCI-H226 = system: NCI-H226
DU-145 = system: DU-145
NCI-H460 = system: NCI-H460
HOP-62 = system: HOP-62
PC-3 = system: PC-3
HCC 2998 = system: HCC 2998
EKVX = system: EKVX
Hs-578T = system: Hs-578T
OVCAR-4 = system: OVCAR-4
RXF 393 = system: RXF 393
HCT-15 = system: HCT-15
ACHN = system: ACHN
UACC-62 = system: UACC-62

Question: Which results are given for `CC(=N\N)/C(C)=N/N=C(C)/C(C)=N/N=C(C)/C(C)=N/N=C(C)/C(C)=N/N`?
Answer: GI50 (TK-10): > 100 µM (inactive); GI50 (UO-31): > 100 µM (inactive); GI50 (A549): > 100 µM (inactive); GI50 (MOLT-4): 20.9 µM (inactive); GI50 (A498): > 100 µM (inactive); GI50 (786-0): > 100 µM (inactive); GI50 (MDA-N): > 100 µM (inactive); GI50 (SK-OV-3): > 100 µM (inactive); GI50 (UACC-257): > 100 µM (inactive); GI50 (CCRF-CEM): > 100 µM (inactive); GI50 (HT-29): > 100 µM (inactive); GI50 (SK-MEL-2): > 100 µM (inactive); GI50 (MDA-MB-231): > 100 µM (inactive); GI50 (OVCAR-8): > 100 µM (inactive); GI50 (T47D): > 100 µM (inactive); GI50 (HL-60): > 100 µM (inactive); GI50 (Malme-3M): > 100 µM (inactive); GI50 (K562): 37.8 µM (inactive); GI50 (HOP-92): 0.316 µM (active); GI50 (SF-295): > 100 µM (inactive); GI50 (NCI/ADR-RES): > 100 µM (inactive); GI50 (SF-539): > 100 µM (inactive); GI50 (KM12): > 100 µM (inactive); GI50 (SR): 0.248 µM (active); GI50 (SN12C): > 100 µM (inactive); GI50 (CAKI-1): > 100 µM (inactive); GI50 (LOX IMVI): > 100 µM (inactive); GI50 (MCF7): > 100 µM (inactive); GI50 (SK-MEL-5): > 100 µM (inactive); GI50 (IGROV-1): > 100 µM (inactive); GI50 (HCT-116): > 100 µM (inactive); GI50 (NCI-H23): 66.8 µM (inactive); GI50 (MDA-MB-435): > 100 µM (inactive); GI50 (BT-549): 97.1 µM (inactive); GI50 (OVCAR-3): > 100 µM (inactive); GI50 (SK-MEL-28): > 100 µM (inactive); GI50 (RPMI-8226): > 100 µM (inactive); GI50 (OVCAR-5): > 100 µM (inactive); GI50 (NCI-H522): > 100 µM (inactive); GI50 (U-251): > 100 µM (inactive); GI50 (SNB-19): > 100 µM (inactive); GI50 (COLO 205): > 100 µM (inactive); GI50 (SW-620): > 100 µM (inactive); GI50 (SNB-75): > 100 µM (inactive); GI50 (M14): > 100 µM (inactive); GI50 (SF-268): > 100 µM (inactive); GI50 (NCI-H226): > 100 µM (inactive); GI50 (DU-145): > 100 µM (inactive); GI50 (NCI-H460): > 100 µM (inactive); GI50 (HOP-62): > 100 µM (inactive); GI50 (PC-3): > 100 µM (inactive); GI50 (HCC 2998): > 100 µM (inactive); GI50 (EKVX): > 100 µM (inactive); GI50 (Hs-578T): > 100 µM (inactive); GI50 (OVCAR-4): > 100 µM (inactive); GI50 (RXF 393): > 100 µM (inactive); GI50 (HCT-15): > 100 µM

Question: Which GI50 (TK-10) does the source give for `COC(=O)C(Cc1c[nH]c2ccccc12)NC(=O)c1ccc(-c2ccc(Cl)cc2Cl)o1` (stereo not given) here?
Answer: 63.5 µM (inactive)

Question: And the GI50 (UO-31)?
Answer: 45.4 µM (inactive)

Question: And the GI50 (A549)?
Answer: 34.9 µM (inactive)

Question: And the GI50 (MOLT-4)?
Answer: 17.6 µM (inactive)

Question: What about the GI50 (A498) of the same compound?
Answer: 15.5 µM (inactive)

Question: What about the GI50 (786-0) of the same compound?
Answer: 43.3 µM (inactive)

Question: What about the GI50 (MDA-N) of the same compound?
Answer: 48.2 µM (inactive)

Question: And the GI50 (SK-OV-3)?
Answer: > 100 µM (inactive)

Question: And the GI50 (UACC-257)?
Answer: 16.9 µM (inactive)

Question: And the GI50 (CCRF-CEM)?
Answer: 20.6 µM (inactive)

Question: And the GI50 (ACHN)?
Answer: 38.4 µM (inactive)

Question: And the GI50 (HT-29)?
Answer: 15.7 µM (inactive)

Question: What about the GI50 (SK-MEL-2) of the same compound?
Answer: 34.8 µM (inactive)

Question: And the GI50 (MDA-MB-231)?
Answer: 15.5 µM (inactive)

Question: And the GI50 (OVCAR-8)?
Answer: 54.1 µM (inactive)

Question: What about the GI50 (T47D) of the same compound?
Answer: 27.5 µM (inactive)

Question: What about the GI50 (HL-60) of the same compound?
Answer: 10.5 µM (inactive)

Question: And the GI50 (Malme-3M)?
Answer: > 100 µM (inactive)

Question: And the GI50 (K562)?
Answer: 26 µM (inactive)

Question: And the GI50 (HOP-92)?
Answer: 17.5 µM (inactive)

Question: What about the GI50 (SF-295) of the same compound?
Answer: 40.5 µM (inactive)

Question: What about the GI50 (NCI/ADR-RES) of the same compound?
Answer: 77.8 µM (inactive)

Question: What about the GI50 (SF-539) of the same compound?
Answer: 21.7 µM (inactive)

Question: What about the GI50 (KM12) of the same compound?
Answer: 60 µM (inactive)

Question: What about the GI50 (SR) of the same compound?
Answer: 26.1 µM (inactive)

Question: And the GI50 (SN12C)?
Answer: 26.4 µM (inactive)

Question: And the GI50 (CAKI-1)?
Answer: 42.7 µM (inactive)

Question: What about the GI50 (LOX IMVI) of the same compound?
Answer: 53 µM (inactive)

Question: And the GI50 (MCF7)?
Answer: 24.4 µM (inactive)

Question: And the GI50 (IGROV-1)?
Answer: 32.6 µM (inactive)

Question: And the GI50 (HCT-116)?
Answer: 22.3 µM (inactive)

Question: What about the GI50 (NCI-H23) of the same compound?
Answer: 73.3 µM (inactive)

Question: And the GI50 (MDA-MB-435)?
Answer: 56 µM (inactive)

Question: And the GI50 (BT-549)?
Answer: > 100 µM (inactive)

Question: What about the GI50 (OVCAR-3) of the same compound?
Answer: 36.4 µM (inactive)

Question: And the GI50 (SK-MEL-28)?
Answer: 65.6 µM (inactive)

Question: What about the GI50 (RPMI-8226) of the same compound?
Answer: 16 µM (inactive)

Question: What about the GI50 (OVCAR-5) of the same compound?
Answer: > 100 µM (inactive)

Question: And the GI50 (NCI-H522)?
Answer: 64.3 µM (inactive)

Question: And the GI50 (U-251)?
Answer: 42.7 µM (inactive)

Question: What about the GI50 (SNB-19) of the same compound?
Answer: > 100 µM (inactive)

Question: What about the GI50 (COLO 205) of the same compound?
Answer: 43.9 µM (inactive)

Question: What about the GI50 (SW-620) of the same compound?
Answer: 41.1 µM (inactive)

Question: And the GI50 (SNB-75)?
Answer: 35.5 µM (inactive)

Question: And the GI50 (M14)?
Answer: 64 µM (inactive)

Question: What about the GI50 (SF-268) of the same compound?
Answer: > 100 µM (inactive)

Question: And the GI50 (NCI-H226)?
Answer: 91.4 µM (inactive)

Question: What about the GI50 (DU-145) of the same compound?
Answer: 71.6 µM (inactive)

Question: And the GI50 (NCI-H460)?
Answer: 21.6 µM (inactive)

Question: And the GI50 (HOP-62)?
Answer: 45.8 µM (inactive)

Question: What about the GI50 (PC-3) of the same compound?
Answer: 7.96 µM (inactive)

Question: And the GI50 (HCC 2998)?
Answer: 18.4 µM (inactive)

Question: And the GI50 (UACC-62)?
Answer: 43.3 µM (inactive)

Question: And the GI50 (EKVX)?
Answer: 27.4 µM (inactive)

Question: What about the GI50 (Hs-578T) of the same compound?
Answer: > 100 µM (inactive)

Question: What about the GI50 (OVCAR-4) of the same compound?
Answer: 38.3 µM (inactive)

Question: And the GI50 (RXF 393)?
Answer: 28.5 µM (inactive)

Question: And the GI50 (HCT-15)?
Answer: 52.7 µM
